{"source": "patent US8309068B2", "about": "“Isolated polypeptides and methods of improving muscle strength” (Myostin Therapeutics Pty Ltd., priority 2006, dated 2012)", "key": {"p-FoxO1": {"test_system": "p-FoxO1", "experiment": "In vitro cancer cachexia trial: p-FoxO1 Western blot in C2C12 myotubes", "format": "cell-based, murine", "settings": "with myostatin 6 μg/mL; tested at 30, 60, 90 or 120 μg/mL; 24 hours", "experimental": "C2C12 cells were differentiated for 72 hours in differentiation media (DMEM+2% HS). Following this period of differentiation the myotubes were tested with recombinant myostatin at 6 μg/mL or a combination of both myostatin and 300 recombinant protein at 30, 60, 90 or 120 μg/mL for further 24 hours to determine if 300 can rescue myostatin-mediated muscle wasting in vitro. Gene expression changes of intermediate signalling molecules critical in myostatin-mediated cachexia were analysed. Therefore, protein was isolated from cells and Western blot analysis was performed to measure protein expression levels for p-FoxO1, which we have shown to be a critical signalling intermediates in Myostatin-mediated cachexia (McFarlane et al 2006)."}, "Sixteen month old mice": {"test_system": "Sixteen month old mice", "experiment": "In vivo trial in sixteen month old mice (sarcopenic muscle, grip strength)", "experimental": "An animal trial was conducted to assess the effects of myostatin antagonist 300 in improving muscle function. Sixteen month old mice were divided into two groups of ten. While the control group received saline subcutaneous (SC) injections, the other group received myostatin antagonist 300 SC at 6 μg/gram of BW three times a week for six weeks. The functional improvement of sarcopenic muscle was assessed by measuring grip strength of mice at the end of trial. Grip strength was measured in Newtons."}, "[1]": {"test_system": "bone marrow derived macrophages", "experiment": "Migration of bone marrow derived macrophages from mice treated in vivo", "settings": "6 μg/g BW SC three times a week for six weeks; ZAMS 11%, 22% or 33%; vs saline", "description": "For chemotaxis analysis of macrophages bone marrow was isolated from saline treated (control) and myostatin antagonist 300 treated mice (as described in example 4, below), and plated at 5×10^6 cells/plate in DMEM 10% FBS plus 10% L929 conditioned medium (containing CSF-1) for 5 days to induce macrophage differentiation. The macrophages were then harvested and used in the assay. Three concentrations of DMEM containing Zymosan-activated mouse serum (ZAMS) was used, 33% (optimum chemo-attractant concentration), 22% and 11% (suboptimal chemo-attractant concentrations). Plain DMEM was used as negative control. On a 24-well plate, the bottom wells were filled with test or control media. Seventy-five thousand cells were added to the top wells containing polyethylene terephthalate (PET) 0.8 μm membranes. The plate was incubated for 4h at 37° C., 5% CO2. […] The membrane was then fixed, stained in Gill's hematoxylin and wet mounted on slides. Migrated cells were counted on four representative fields per membrane and the average number plotted.\nAn animal trial was conducted to assess the effects of myostatin antagonist 300 in improving muscle function. Sixteen month old mice were divided into two groups of ten. […] The functional improvement of sarcopenic muscle was assessed by measuring grip strength of mice at the end of trial. Grip strength was measured in Newtons."}, "myostatin": {"test_system": "myostatin", "experiment": "Myoblast chemotaxis assay, recovery of myostatin chemo-inhibition by antagonists", "format": "cell-based", "experimental": "Primary myoblasts were cultured from the hind limb muscle of young (4 to 6 week old) or old (24 month old) mice, according to the published protocols (Allen et al., 1997; Partridge, 1997). Briefly, muscles were minced, and digested in 0.2% collagenase type 1A for 90 min. Cultures were enriched for myoblasts by pre-plating on uncoated plates for 3 hours. Myoblast cultures were maintained in growth media (GM) supplemented with 20% fetal calf serum (FCS), 10% HS and 1% CEE on 10% Matrigel coated plates, at 37° C./5% CO2. The extent of culture purity was assessed by flow cytometry analysis of MyoD expression after 48 hours in culture. Cells were harvested using trypsin, suspended at a concentration of 10^6 cells/200 μl and fixed overnight in 5 ml 70% ethanol at −20° C. Staining was performed for 30 min at room temperature using rabbit polyclonal anti-MyoD, 1:200 (Santa Cruz), followed by Alexa fluor 488 anti-rabbit conjugate, 1:500 (Molecular Probes). Analysis was carried out in duplicate with 10^4 cell events collected in each assay. Debris was excluded by gating on forward and side scatter profiles. Cells were analyzed by FACScan (Becton Dickinson). Macrophages were isolated by a peritoneal lavage technique and/or derived from bone marrow Zymosan-activated mouse serum (ZAMS) was prepared according to the published protocol (Colditz and Movat, 1984).\nFor the chemotaxis assay of myoblasts, a first assay was carried out on myoblasts from 2 year old mice as follows. DMEM containing 2% horse serum (HS), 5% chicken embryo extract (CEE) plus dialysis buffer was used as positive control. […] Plain DMEM was used as negative control. On a 24-well plate, the bottom wells were filled with test or control media. Seventy-five thousand cells were added to the top wells containing polyethylene terephthalate (PET) 0.8 μm membranes coated with 1% Matrigel. The plate was incubated for 7 h at 37° C., 5% CO2. […] The membrane was then fixed, stained in Gill's hematoxylin and wet mounted on slides. Migrated cells were counted on four representative fields per membrane and the average number plotted. The results are shown in FIG. 6 (myoblast migration from old mice) and FIG. 7 (myoblast migration from young mice)."}, "[2]": {"test_system": "TA muscle burn in C56b1/6 mice", "experiment": "In vivo muscle burn trial", "experimental": "C56b1/6 mice at ˜12 months of age were anesthetized and a red-hot metal rod (1.5 mm wide, 7 mm long) was applied to TA muscle for 5 sec. The mice were injected subcutaneously with saline or 300 myostatin antagonists at 6 μg/g of body weight at day 1, 3, 5, 7 and 10 after injury. The mice were allowed to heal for 5, 7, 14, 21, 28, 35 and 46 days, after which they were culled and the muscle processed for histology.\nHistological muscle samples were covered in OCT and frozen in isopentane cooled in liquid nitrogen. The sections were cut in a cryostat at 10 μm thickness and stained with H&E and Van Gieson. Regeneration markers such as total number of centrally formed nuclei (CFN) and number of fibres with CNF were analysed for each day following the different treatments, and the values plotted."}}, "note": "Where no end group is shown, it is not given here."}
{"substance": "myostatin antagonist 300: recombinant peptide, amino acids 267-300 of bovine myostatin, with N terminal and C terminal tag (SEQ ID NO: 6) (DFGLDCDEHSTESRCCRYPLTVDFEAFGWDWIIA; cysteine pairing not given here; also: N- and C-terminal tags; listed as Homo sapiens)", "values": [{"measurement": "concentration giving maximal rescue of p-FoxO1 expression", "setting": "p-FoxO1", "value": 90, "unit": "µg/mL"}, {"measurement": "body fat compared with saline treated controls", "setting": "Sixteen month old mice; 16 month old mice, 6 week treatment, observation, result not shown", "value": "reduced the amount of subcutaneous fat including the inguinal fat pad"}, {"measurement": "average percent change in grip strength", "setting": "Sixteen month old mice; aged mice, 6 μg/g BW SC three times a week, six week period", "value": "highly significant increase"}, {"measurement": "grip strength at the beginning and end of the trial", "setting": "Sixteen month old mice; aged mice, day 0 and day 42, 6 μg/g BW SC three times a week", "value": "significantly increased"}, {"measurement": "migratory ability of macrophages isolated from treated mice", "setting": "[1]", "value": "significantly increased"}, {"measurement": "rescue of chemo-inhibiting effects of myostatin on myoblast migration", "setting": "myostatin; myoblasts from old (2 year old) mice, antagonist added at 5 μg/ml, myostatin 2.5 μg/ml", "value": "rescued to levels similar to those observed in the control"}, {"measurement": "rescue of chemo-inhibiting effects of myostatin on myoblast migration", "setting": "myostatin; myoblasts from young (1 month old) mice", "value": "rescued the migration of myostatin cells to control levels"}, {"measurement": "H&E staining of the muscle", "setting": "[2]; 21 days after burn injury", "value": "darker stained fibres, many with centrally formed nuclei"}, {"measurement": "degree of fibrosis (van Gieson staining)", "setting": "[2]; D21 after injury", "value": "higher degree of fibrosis in the control group"}, {"measurement": "number of fibres with centrally formed nuclei (CFN)", "setting": "[2]; after muscle burn, compared to saline", "value": "increased number"}, {"measurement": "percentage of damage muscle area, treatment vs control", "setting": "[2]; from D28 onwards, data not shown", "value": "no difference"}, {"measurement": "numbers of centrally formed nuclei (CFN)", "setting": "[2]; muscle burn, by D21, maintained up to day 46, vs control", "value": "significantly higher"}]}
